Measurements taken from patent US20240317758A1 (Halia Therapeutics, Inc., priority 2021, published 2024).

target: T1, full-length recombinant human NEK7 (Homo sapiens, UniProt Q8TDX7); experiment: NEK7 enzymatic assay; assay type: biochemical; details: recombinant human NEK7, casein substrate, radiolabelled ATP
T1 construct: full-length recombinant human NEK7; GST (N); purchased SignalChem NO9-10G; host or cells: Sf9 insect cells (baculovirus)
Description: Casein substrate (from bovine milk, hydrolyzed and partially dephosphorylated mixture of α, β and κ caseins, obtained from Sigma Aldrich, catalogue #C4765, diluted in distilled water to a final concentration of 1 mg/mL) and full-length recombinant human NEK7 (expressed by baculovirus in Sf9 insect cells using a N-terminal GST tag, obtained from SignalChem, catalogue #NO9-10G, 0.1 μg/μL) were mixed in assay buffer (20 mM Hepes pH 7.5, 10 mM MgCl2, 1 mM EGTA, 0.02% Brij35, 0.02 mg/ml BSA, 0.1 mM Na3VO4, 2 mM DTT, 1% DMSO). Compounds of interest (serial 3-fold dilution in DMSO from 10 μM to 0.5 nM) or vehicle (1% DMSO) were dispensed into the kinase reaction mixture by Acoustic technology (Echo550; nanoliter range). After incubation at room temperature for 20 minutes, the kinase reaction was initiated by addition of [^33P]-ATP (specific activity 10 μCi/μl) and the mixture was incubated at room temperature for 2 hours. The reaction was then stopped by spotting the reaction mixture on strips of phosphocellulose P81 paper. Following washing, the radioactivity of the P81 paper was measured and kinase activity data were expressed as the percent remaining kinase activity in test samples compared to vehicle reactions. IC50 values and curve fits were obtained using Prism (GraphPad Software).
Casein substrate (from bovine milk, hydrolyzed and partially dephosphorylated mixture of α, β and κ caseins, obtained from Sigma Aldrich, catalogue #C4765, diluted in distilled water to a final concentration of 1 mg/mL, assay concentration 20 μM) and full-length recombinant human Nek7 (expressed by baculovirus in Sf9 insect cells using a N-terminal GST tag, obtained from SignalChem, catalogue #NO9-10G, 0.1 μg/μL, assay concentration 70 nM) were mixed in assay buffer (20 mM Hepes pH 7.5, 10 mM MgCl2, 1 mM EGTA, 0.02% Brij35, 0.02 mg/ml BSA, 0.1 mM […], 2 mM DTT, 1% DMSO). Compounds of interest (in DMSO, serial 3-fold dilution from 10 μM to 0.5 nM) or control (1% DMSO) were dispensed into the kinase reaction mixture by Acoustic technology (Echo550; nanoliter range). After incubation at room temperature for 20 minutes, the kinase reaction was initiated by addition of [^32P]-ATP (Specific activity 10 μCi/μl) and the mixture was incubated at room temperature for 2 hours. The reaction was then stopped by spotting the reaction mixture on strips of phosphocellulose P81 paper. Following washing, the radioactivity of the P81 paper was measured and kinase activity data were expressed as the percent remaining kinase activity in test samples compared to vehicle (dimethyl sulfoxide) reactions. IC50 values and curve fits were obtained using Prism (GraphPad Software).

T1 sequence (Q8TDX7 whole entry): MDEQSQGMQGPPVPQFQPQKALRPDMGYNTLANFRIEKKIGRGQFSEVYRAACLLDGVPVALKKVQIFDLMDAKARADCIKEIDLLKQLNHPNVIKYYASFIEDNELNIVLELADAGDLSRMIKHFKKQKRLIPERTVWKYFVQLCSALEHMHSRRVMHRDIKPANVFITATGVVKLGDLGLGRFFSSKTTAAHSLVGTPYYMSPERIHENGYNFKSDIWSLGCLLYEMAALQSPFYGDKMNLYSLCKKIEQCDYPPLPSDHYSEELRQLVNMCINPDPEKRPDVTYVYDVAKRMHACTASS

IC50	Structure (SMILES)
< 100 nM	CN1CCN(Cc2ccc(NC(=O)Nc3ccc(-c4cn(C5CN(C)C5)c5ncnc(N)c45)cc3F)cc2C(F)(F)F)CC1 [Example I-104, 1-(4-(4-amino-7-(1-methylazetidin-3-yl)-7H-pyrrolo[2,3-d]pyrimidin-5-yl)-2-fluorophenyl)-3-(4-((4-methylpiperazin-1-yl)methyl)-3-(trifluoromethyl)phenyl)urea]
> 2000 nM	Nc1ncnc2c1c(-c1ccc(NC(=O)Nc3ccc(CN4CCC(F)(F)CC4)c(C(F)(F)F)c3)c(F)c1)cn2C1CC1 [Example I-85, 1-(4-(4-amino-7-cyclopropyl-7H-pyrrolo[2,3-d]pyrimidin-5-yl)-2-fluorophenyl)-3-(4-((4,4-difluoropiperidin-1-yl)methyl)-3-(trifluoromethyl)phenyl)urea]
< 100 nM	CN1CCN(Cc2ccc(NC(=O)Nc3ccc(-c4nn(CCCCCO)c5ncnc(N)c45)cc3F)cc2C(F)(F)F)CC1 [Example I-103, 1-(4-(4-amino-1-(5-hydroxypentyl)-1H-pyrazolo[3,4-d]pyrimidin-3-yl)-2-fluorophenyl)-3-(4-((4-methylpiperazin-1-yl)methyl)-3-(trifluoromethyl)phenyl)urea]
100 to 500 nM	Nc1ncnc2c1c(-c1ccc(NC(=O)Nc3ccc(CN4CCC(O)CC4)c(C(F)(F)F)c3)c(F)c1)cn2C1CC1 [Example I-96, 1-(4-(4-amino-7-cyclopropyl-7H-pyrrolo[2,3-d]pyrimidin-5-yl)-2-fluorophenyl)-3-(4-((4-hydroxypiperidin-1-yl)methyl)-3-(trifluoromethyl)phenyl)urea]

Continued, molecule first:

Structure (SMILES)	IC50
CN1CCN(Cc2ccc(NC(=O)Nc3ccc(-c4cn(C5CCC5)c5ncnc(N)c45)cc3F)cc2C(F)(F)F)CC1 [Example I-19, 1-(4-(4-amino-7-cyclobutyl-7H-pyrrolo[2,3-d]pyrimidin-5-yl)-2-fluorophenyl)-3-(4-((4-methylpiperazin-1-yl)methyl)-3-(trifluoromethyl)phenyl)urea]	100 to 500 nM
CN1CCN(Cc2c(F)cc(NC(=O)Nc3ccc(-c4cn(C5CC5)c5ncnc(N)c45)cc3F)cc2C(F)(F)F)CC1 [Example I-12, 1-(4-(4-amino-7-cyclopropyl-7H-pyrrolo[2,3-d]pyrimidin-5-yl)-2-fluorophenyl)-3-(3-fluoro-4-((4-methylpiperazin-1-yl)methyl)-5-(trifluoromethyl)phenyl)urea]	< 100 nM
CCN1CCN(Cc2ccc(NC(=O)Nc3ccc(-c4cn(C5CC5)c5ncnc(N)c45)cc3Cl)cc2C(F)(F)F)CC1 [Example I-55, 1-(4-(4-amino-7-cyclopropyl-7H-pyrrolo[2,3-d]pyrimidin-5-yl)-2-chlorophenyl)-3-(4-((4-ethylpiperazin-1-yl)methyl)-3-(trifluoromethyl)phenyl)urea]	100 to 500 nM
CN1CCCN(Cc2ccc(NC(=O)Nc3ccc(-c4cn(C5CC5)c5ncnc(N)c45)cc3F)cc2C(F)(F)F)CC1 [Example I-44, 1-(4-(4-amino-7-cyclopropyl-7H-pyrrolo[2,3-d]pyrimidin-5-yl)-2-fluorophenyl)-3-(4-((4-methyl-1,4-diazepan-1-yl)methyl)-3-(trifluoromethyl)phenyl)urea]	< 100 nM
Nc1ncnc2c1c(-c1ccc(NC(=O)Nc3ccc(CN4CCOCC4)cc3F)c(F)c1)cn2C1CC1 [Example I-1, 1-(4-(4-amino-7-cyclopropyl-7H-pyrrolo[2,3-d]pyrimidin-5-yl)-2-fluorophenyl)-3-(2-fluoro-4-(morpholinomethyl)phenyl)urea]	> 2000 nM
